{"source": "PubChem BioAssay AID1259409", "about": "(Chemical Carcinogenesis Research Information System (CCRIS), 2018)", "origin": "cited, not measured here", "system": "rodent chemically induced tumor inhibition, incidence and multiplicity", "assay": "CCRIS tumor inhibitor studies"}
{"molecule": "O=c1oc2c(O)c(O)cc3c(=O)oc4c(O)c(O)cc1c4c23", "values": [{"measurement": "tumour outcome (control, treated, inhibition, significance)", "setting": "Carcinogen: 7,12-DIMETHYLBENZ[A]ANTHRACENE, 57-97-6, Dose [Inhibitor]: 0, 2000 PPM IN DIET FROM 1 WK PRIOR TO CARCINOGEN TREATMENT TO 3 D POST CARCINOGEN TREATMENT (STUDY DURATION: 42 WK), Route [Inhibitor]: ORAL, Species: FISH, Strain/Sex: RAINBOW TROUT/ MALE, FEMALE, Target Tissue: Type of Lesion: STOMACH: TUMOR, Dose [Carcinogen]: 5.5 PPM IN WATER FOR 1 HR, Promoter: NONE USED", "value": "88%, 78%, 11%, p<0.05"}, {"measurement": "tumour outcome (control, treated, inhibition, significance)", "setting": "Carcinogen: 7,12-DIMETHYLBENZ[A]ANTHRACENE, 57-97-6, Dose [Inhibitor]: 0, 2000 PPM IN DIET FROM 3 WK PRIOR TO CARCINOGEN TREATMENT TO 3 D POST CARCINOGEN TREATMENT (STUDY DURATION: 42 WK), Route [Inhibitor]: ORAL, Species: FISH, Strain/Sex: RAINBOW TROUT/ MALE, FEMALE, Target Tissue: Type of Lesion: LIVER: TUMOR, Dose [Carcinogen]: 4.16 PPM IN WATER FOR 1 HR, Promoter: NONE USED", "value": "7%, 22%, -214%, p<0.001"}, {"measurement": "tumour outcome (control, treated, inhibition, significance)", "setting": "Carcinogen: 7,12-DIMETHYLBENZ[A]ANTHRACENE, 57-97-6, Dose [Inhibitor]: 0, 2000 PPM IN DIET FROM 3 WK PRIOR TO CARCINOGEN TREATMENT TO 3 D POST CARCINOGEN TREATMENT (STUDY DURATION: 42 WK), Route [Inhibitor]: ORAL, Species: FISH, Strain/Sex: RAINBOW TROUT/ MALE, FEMALE, Target Tissue: Type of Lesion: SWIM BLADDER: TUMOR, Dose [Carcinogen]: 4.16 PPM IN WATER FOR 1 HR, Promoter: NONE USED", "value": "14%, 61%, -336%, p<0.001"}, {"measurement": "tumour outcome (control, treated, inhibition, significance)", "setting": "Carcinogen: 7,12-DIMETHYLBENZ[A]ANTHRACENE, 57-97-6, Dose [Inhibitor]: O, 2000 PPM IN DIET FROM 3 WK PRIOR TO CARCINOGEN TREATMENT TO 3D POST CARCINOGEN TREATMENT (STUDY DURATION: 42 WK), Route [Inhibitor]: ORAL, Species: FISH, Strain/Sex: RAINBOW TROUT/ MALE, FEMALE, Target Tissue: Type of Lesion: STOMACH: TUMOR, Dose [Carcinogen]: 4.16 PPM IN WATER FOR 1 HR, Promoter: NONE USED", "value": "97%, 94%, 3%, not significant"}, {"measurement": "tumour outcome (control, treated, inhibition, significance)", "setting": "Carcinogen: (+/-)-1BETA,2ALPHA-DIHYDROXY-3ALPHA,4ALPHA-EPOXY-1,2,3,4-TETRAHYDROBENZO[A]PYRE NE, 78919-11-6, Dose [Inhibitor]: 0, 300 NMOL (TOTAL DOSE) APPLIED 10 MIN PRIOR TO CARCINOGEN DOSE INJECTED AS 1/7, 2/7, AND 4/7 OF THE TOTAL ON DAYS 1, 8, Route [Inhibitor]: INTRAPERITONEAL, Species: MOUSE, Strain/Sex: ICR/MALE, FEMALE, Target Tissue: Type of Lesion: LUNG: TUMOR, Dose [Carcinogen]: 50 NMOL (TOTAL DOSE) INJECTED IN DOSES OF 1/7, 2/7, AND 4/7 ON DAYS 1, 8, AND 15 OF LIFE, RESPECTIVELY, Promoter: NONE USED", "value": "93%, 86%, 8%, not significant"}, {"measurement": "tumour outcome (control, treated, inhibition, significance)", "setting": "Carcinogen: (+/-)-7BETA,8ALPHA-DIHYDROXY-9ALPHA,10ALPHA-EPOXY-7,8,9,10-TETRAHYDROBENZO[A]PYR ENE, 58917-67-2, Dose [Inhibitor]: 0, 300 NMOL (TOTAL DOSE) APPLIED 10 MIN PRIOR TO CARCINOGEN DOSE INJECTED AS 1/7, 2/7, AND 4/7 OF THE TOTAL ON DAYS 1, 8, Route [Inhibitor]: INTRAPERITONEAL, Species: MOUSE, Strain/Sex: ICR/MALE, FEMALE, Target Tissue: Type of Lesion: LUNG: TUMOR, Dose [Carcinogen]: 15 NMOL (TOTAL DOSE) INJECTED IN DOSES OF 1/7, 2/7, AND 4/7 ON DAYS 1, 8, AND 15 OF LIFE, RESPECTIVELY, Promoter: NONE USED", "value": "86%, 76%, 12%, not significant"}, {"measurement": "tumour outcome (control, treated, inhibition, significance)", "setting": "Carcinogen: (+/-)-7BETA,8ALPHA-DIHYDROXY-9ALPHA,10ALPHA-EPOXY-7,8,9,10-TETRAHYDROBENZO[A]PYR ENE, 58917-67-2, Dose [Inhibitor]: 0, 1250 NMOL IN 200 µL ACETONE:METHANOL (45:55) ONCE APPLIED 5 MIN PRIOR TO CARCINOGEN DOSE (STUDY DURATION: 21 WK), Route [Inhibitor]: DERMAL, Species: MOUSE, Strain/Sex: CD-1/FEMALE, Target Tissue: Type of Lesion: SKIN: TUMOR, Dose [Carcinogen]: 200 NMOL IN ACETONE:DMSO (90:10) ONCE, Promoter: 12-O-TETRADECANOYLPHORBOL-13-ACETATE, 16561-29-8", "value": "62%, 50%, 19%, not significant"}, {"measurement": "tumour outcome (control, treated, inhibition, significance)", "setting": "Carcinogen: (+/-)-7BETA,8ALPHA-DIHYDROXY-9ALPHA,10ALPHA-EPOXY-7,8,9,10-TETRAHYDROBENZO[A]PYR ENE, 58917-67-2, Dose [Inhibitor]: 0, 2500 NMOL IN 200 µL ACETONE:METHANOL (45:55) ONCE APPLIED 5 MIN PRIOR TO CARCINOGEN DOSE (STUDY DURATION: 21 WK), Route [Inhibitor]: DERMAL, Species: MOUSE, Strain/Sex: CD-1/FEMALE, Target Tissue: Type of Lesion: SKIN: TUMOR, Dose [Carcinogen]: 200 NMOL IN ACETONE:DMSO (90:10) ONCE, Promoter: 12-O-TETRADECANOYLPHORBOL-13-ACETATE, 16561-29-8", "value": "62%, 43%, 31%, not significant"}, {"measurement": "tumour outcome (control, treated, inhibition, significance)", "setting": "Carcinogen: (+/-)-7BETA,8ALPHA-DIHYDROXY-9ALPHA,10ALPHA-EPOXY-7,8,9,10-TETRAHYDROBENZO[A]PYR ENE, 58917-67-2, Dose [Inhibitor]: 0, 2500 NMOL IN 200 µL ACETONE:METHANOL (45:55) ONCE APPLIED 30 MIN PRIOR TO CARCINOGEN DOSE (STUDY DURATION: 21 WK), Route [Inhibitor]: DERMAL, Species: MOUSE, Strain/Sex: CD-1/FEMALE, Target Tissue: Type of Lesion: SKIN: TUMOR, Dose [Carcinogen]: 200 NMOL IN ACETONE:DMSO (90:10) ONCE, Promoter: 12-O-TETRADECANOYLPHORBOL-13-ACETATE, 16561-29-8", "value": "53%, 33%, 38%, not significant"}, {"measurement": "tumour outcome (control, treated, inhibition, significance)", "setting": "Carcinogen: (+/-)-7BETA,8ALPHA-DIHYDROXY-9ALPHA,10ALPHA-EPOXY-7,8,9,10-TETRAHYDROBENZO[A]PYR ENE, 58917-67-2, Dose [Inhibitor]: 0, 2500 NMOL IN 200 µL ACETONE:METHANOL (45:55) ONCE APPLIED 120 MIN PRIOR TO CARCINOGEN DOSE (STUDY DURATION: 21 WK), Route [Inhibitor]: DERMAL, Species: MOUSE, Strain/Sex: CD-1/FEMALE, Target Tissue: Type of Lesion: SKIN: TUMOR, Dose [Carcinogen]: 200 NMOL IN ACETONE:DMSO (90:10) ONCE, Promoter: 12-O-TETRADECANOYLPHORBOL-13-ACETATE, 16561-29-8", "value": "63%, 43%, 32%, not significant"}, {"measurement": "tumour outcome (control, treated, inhibition, significance)", "setting": "Carcinogen: AZOXYMETHANE, 25843-45-2, Dose [Inhibitor]: 0, 4000 PPM IN DIET BEGINNING PRIOR TO CARCINOGEN DOSE AND CONTINUING FOR DURATION OF STUDY (STUDY DURATION: 54 WK), Route [Inhibitor]: ORAL, Species: RAT, Strain/Sex: F344/MALE, Target Tissue: Type of Lesion: COLON: ADENOCARCINOMA, Dose [Carcinogen]: 15 MG/KG 1/WK FOR 2 WK, Promoter: NONE USED", "value": "72%, 64%, 11%, not calculated"}, {"measurement": "tumour outcome (control, treated, inhibition, significance)", "setting": "Carcinogen: AZOXYMETHANE, 25843-45-2, Dose [Inhibitor]: 0, 4000 PPM IN DIET BEGINNING PRIOR TO CARCINOGEN DOSE AND CONTINUING FOR DURATION OF STUDY (STUDY DURATION: 54 WK), Route [Inhibitor]: ORAL, Species: RAT, Strain/Sex: F344/MALE, Target Tissue: Type of Lesion: COLON: ADENOMA, Dose [Carcinogen]: 15 MG/KG 1/WK FOR 2 WK, Promoter: NONE USED", "value": "14%, 8%, 43%, not calculated"}]}
